Data from PMC5045260 (Phytotherapy research : PTR, 2016).

How the values were obtained:
[1] = molecular target: T1, c-Met (Homo sapiens, UniProt P08581); assay: Z'-LYTE Tyr6 peptide kinase assay, […] ATP, purified c-Met kinase domain; assay type: biochemical
[2] = molecular target: T1, c-Met; assay: Z'-LYTE Tyr6 peptide kinase assay, single concentration; assay type: biochemical

T1 sequence (P08581 956-1390 limits assumed): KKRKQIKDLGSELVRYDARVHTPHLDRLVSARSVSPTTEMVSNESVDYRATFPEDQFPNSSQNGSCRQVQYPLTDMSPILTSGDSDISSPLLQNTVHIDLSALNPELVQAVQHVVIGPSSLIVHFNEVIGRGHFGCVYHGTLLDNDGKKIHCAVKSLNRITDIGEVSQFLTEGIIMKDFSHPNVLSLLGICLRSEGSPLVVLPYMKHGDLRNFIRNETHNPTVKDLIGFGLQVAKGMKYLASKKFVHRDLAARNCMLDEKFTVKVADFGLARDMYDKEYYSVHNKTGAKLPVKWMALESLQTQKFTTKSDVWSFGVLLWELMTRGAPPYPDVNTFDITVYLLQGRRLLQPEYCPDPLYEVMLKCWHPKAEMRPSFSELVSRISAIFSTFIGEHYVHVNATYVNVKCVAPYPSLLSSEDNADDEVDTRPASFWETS

Row | SMILES | IC50 [1] | Z'-LYTE Tyr6 peptide kinase assay, single concentration (53% reduction at 5 μM), [2]
1 | Cc1cc(O)c(C=O)c2c1C(=O)Oc1c(C)c(O)c3c(c1O2)C(O)OC3=O (centres unmarked) [norstictic acid] | 6.5 µM | 
2 | C/C=C(/C=O)[C@@H](CC=O)CC(=O)OCCc1ccc(O)cc1 [oleocanthal] |  | 53% reduction at 5
